US5591758A, “Organic nitrates, processes for their preparation and their use in the treatment of cardiovascular diseases” (Laboratoires Hoechst, SA, priority 1991, dated 1997)
Values joined by “and” are separate entries in the source; they are usually repeats but may differ in a detail not shown here. Equal values may be shown once. Where a name gives a salt, the structure may show the parent alone.

System: anaesthetised dogs
Assay: Tachyphylaxis model on anaesthetised dogs (repeated i.d. administration)
Type: in vivo, dogs (labrador/harrier cross)
Parameters: Δdp/dt average / ΔBPs / ΔBPd / ΔLVEDP / ΔHR / ΔBPs average / ΔBPd average / ΔLVEDP average / ΔHR average: unit not given here
Conditions: for Δdp/dt / ΔBPd / ΔBPs / ΔHR / ΔLVEDP: single dog
Description: Comparison with isosorbide mononitrate (IS-5-MN).
The product (46) is tested in a tachyphylaxis model on anaesthetised dogs. IS-5-MN is used as reference substance.
8 dogs of each sex, weighing between 16 and 24 kg, are used. These dogs are the progeny of a labrador/harrier cross. Anaesthesia is induced with the aid of sodium pentobarbital (45 mg/kg i.v.) and maintained by i.v. perfusion (flow rate: 8 mg/kg/h). The animals are ventilated, with the aid of a "Bird Mark 7" respirator, using ambient air, and catheterised. […] The arterial blood gases are measured at regular intervals.
IS-5-MN is also dissolved in water and given i.d. in a dosage of 5 mg/kg in a volume of 10 ml/animal.
Three hours (in the case of IS-5-MN) or four hours (in the case of (46)) after the first administration, the compounds are readministered in the same dosage and by the same route. The haemodynamic parameter chosen for the study of the tachyphylaxis is the systolic blood pressure (BPs), insofar as this parameter is very sensitive to the administration of the compounds.

[1] = i.d., IS-5-MN 5 mg/kg, (46) 0.75 mg/kg
[2] = n = 4, 1st administration, 0.75 mg/kg i.d., 5 min
[3] = n = 4, 1st administration, 0.75 mg/kg i.d., 10 min
[4] = n = 4, 1st administration, 0.75 mg/kg i.d., 15 min
[5] = n = 4, 1st administration, 0.75 mg/kg i.d., 30 min
[6] = n = 4, 1st administration, 0.75 mg/kg i.d., 60 min
[7] = n = 4, 1st administration, 0.75 mg/kg i.d., 120 min
[8] = n = 4, 1st administration, 0.75 mg/kg i.d., 180 min
[9] = n = 4, 1st administration, 0.75 mg/kg i.d., 240 min
[10] = n = 4, 2nd administration, 0.75 mg/kg i.d., 5 min
[11] = n = 4, 2nd administration, 0.75 mg/kg i.d., 10 min
[12] = n = 4, 2nd administration, 0.75 mg/kg i.d., 15 min
[13] = n = 4, 2nd administration, 0.75 mg/kg i.d., 30 min
[14] = n = 4, 2nd administration, 0.75 mg/kg i.d., 60 min
[15] = n = 4, 2nd administration, 0.75 mg/kg i.d., 120 min
[16] = 1st administration, 0.75 mg/kg i.d., 5 min, monohydrochloride, 0.75 mg/kg
[17] = 1st administration, 0.75 mg/kg i.d., 10 min, monohydrochloride, 0.75 mg/kg
[18] = 1st administration, 0.75 mg/kg i.d., 15 min, monohydrochloride, 0.75 mg/kg
[19] = 1st administration, 0.75 mg/kg i.d., 30 min, monohydrochloride, 0.75 mg/kg
[20] = 1st administration, 0.75 mg/kg i.d., 60 min, monohydrochloride, 0.75 mg/kg
[21] = 1st administration, 0.75 mg/kg i.d., 120 min, monohydrochloride, 0.75 mg/kg
[22] = 1st administration, 0.75 mg/kg i.d., 180 min, monohydrochloride, 0.75 mg/kg
[23] = 1st administration, 0.75 mg/kg i.d., 240 min, monohydrochloride, 0.75 mg/kg
[24] = 2nd administration, 0.75 mg/kg i.d., 5 min
[25] = 2nd administration, 0.75 mg/kg i.d., 5 min, monohydrochloride, 0.75 mg/kg
[26] = 2nd administration, 0.75 mg/kg i.d., 10 min
[27] = 2nd administration, 0.75 mg/kg i.d., 10 min, monohydrochloride, 0.75 mg/kg
[28] = 2nd administration, 0.75 mg/kg i.d., 15 min, monohydrochloride, 0.75 mg/kg
[29] = 2nd administration, 0.75 mg/kg i.d., 30 min, monohydrochloride, 0.75 mg/kg
[30] = 2nd administration, 0.75 mg/kg i.d., 60 min, monohydrochloride, 0.75 mg/kg
[31] = 2nd administration, 0.75 mg/kg i.d., 120 min, monohydrochloride, 0.75 mg/kg

## O=C(CNC(=O)[C@@H]1CSCN1)N[C@H]1CO[C@H]2[C@@H]1OC[C@@H]2O[N+](=O)[O-] [Compound 46, 5-[[2-[[(4-L-Thiazolidinyl)carbonyl]amino]-1oxoethyl]amino]-5-deoxy-2-O-nitro-1,4:3,6-dianhydro-L-iditol monohydrochloride]
0.75 mg/kg i.d.
  fall in the BPs, first administration, on average: -30 mmHg
Compared with IS-5-MN, first administration
  period of action: longer
dogs, two i.d. administrations
  development of tachyphylaxis after repeated administration: absence of the development of tachyphylaxis
[1]
  maximum fall in the BP after second administration: -33 mmHg
  time of maximum effect on BPs after first administration: 60 min
  time of maximum fall in the BP after second administration: 60 min
[2]
  ΔBPd average: -4
  ΔBPs average: -5
  ΔHR average: -1
  ΔLVEDP average: -0
  Δdp/dt average: 0
[3]
  ΔBPd average: -11
  ΔBPs average: -18
  ΔHR average: -1
  ΔLVEDP average: -2
  Δdp/dt average: -100
[4]
  ΔBPd average: -16
  ΔBPs average: -26
  ΔHR average: -1
  ΔLVEDP average: -2
  Δdp/dt average: -125
[5]
  ΔBPd average: -20
  ΔBPs average: -30
  ΔHR average: -2
  ΔLVEDP average: -2
  Δdp/dt average: -150
[6]
  ΔBPd average: -20
  ΔBPs average: -33
  ΔHR average: -8
  ΔLVEDP average: -3
  Δdp/dt average: -200
[7]
  ΔBPd average: -20
  ΔBPs average: -31
  ΔHR average: -10
  ΔLVEDP average: -4
  Δdp/dt average: -250
[8]
  ΔBPd average: -15
  ΔBPs average: -24
  ΔHR average: -6
  ΔLVEDP average: -4
  Δdp/dt average: -150
[9]
  ΔBPd average: -7
  ΔBPs average: -12
  ΔHR average: 0
  ΔLVEDP average: -4
  Δdp/dt average: 25
[10]
  ΔBPd average: -5
  ΔBPs average: -6
  ΔHR average: 0
  ΔLVEDP average: 0
  Δdp/dt average: -50
[11]
  ΔBPd average: -6
  ΔBPs average: -11
  ΔHR average: 0
  ΔLVEDP average: 0
  Δdp/dt average: -75
[12]
  ΔBPd average: -10
  ΔBPs average: -18
  ΔHR average: -1
  ΔLVEDP average: 0
  Δdp/dt average: -125
[13]
  ΔBPd average: -15
  ΔBPs average: -25
  ΔHR average: -1
  ΔLVEDP average: -1
  Δdp/dt average: -225
[14]
  ΔBPd average: -19
  ΔBPs average: -33
  ΔHR average: -4
  ΔLVEDP average: -2
  Δdp/dt average: 350
[15]
  ΔBPd average: -15
  ΔBPs average: -26
  ΔHR average: -2
  ΔLVEDP average: -2
  Δdp/dt average: -275
1st administration, 0.75 mg/kg i.d., 5 min
  Δdp/dt: 0
[16]
  ΔBPd: -5 and 0
  ΔBPs: -5 and -10 and 0
  ΔHR: 0 and -5
  ΔLVEDP: 0 and -1
1st administration, 0.75 mg/kg i.d., 10 min
  Δdp/dt: -100
[17]
  ΔBPd: -10 and -15
  ΔBPs: -15 and -20
  ΔHR: 0 and -5
  ΔLVEDP: -2 and 0 and -3
[18]
  ΔBPd: -15 and -20
  ΔBPs: -25 and -20 and -35
  ΔHR: 0 and -5
  ΔLVEDP: -3 and -2 and 1
  Δdp/dt: -100 and -200
[19]
  ΔBPd: -20 and -15 and -25
  ΔBPs: -30 and -20 and -40
  ΔHR: -5 and 0
  ΔLVEDP: -4 and -2 and 1
  Δdp/dt: -100 and -200
[20]
  ΔBPd: -20 and -25 and -10
  ΔBPs: -30 and -35 and -15 and -50
  ΔHR: -10 and -5
  ΔLVEDP: -3 and -2 and -4
  Δdp/dt: -200 and -300 and 0
[21]
  ΔBPd: -20 and -25 and -10
  ΔBPs: -30 and -35 and -15 and -45
  ΔHR: -15 and 5
  ΔLVEDP: -2 and -6 and -4
  Δdp/dt: -200 and -300
[22]
  ΔBPd: -20 and -5 and -15
  ΔBPs: -25 and -30 and -10
  ΔHR: -10 and -15 and 10
  ΔLVEDP: -3 and -2 and -7 and -4
  Δdp/dt: -200 and -300 and -100 and 0
[23]
  ΔBPd: -10 and -20 and 0
  ΔBPs: -15 and -20 and 0
  ΔHR: -5 and -10 and 0 and 15
  ΔLVEDP: -4 and -3 and -7
  Δdp/dt: -100 and 0 and 300
[24]
  ΔBPd: -5
  ΔHR: 0
[25]
  ΔBPs: -5 and -10
  ΔLVEDP: 0 and 1
  Δdp/dt: 0 and -100
[26]
  ΔHR: 0
  ΔLVEDP: 0
[27]
  ΔBPd: -10 and -5
  ΔBPs: -15 and -5 and -10
  Δdp/dt: 0 and -100 and -200
[28]
  ΔBPd: -15 and -10 and -5
  ΔBPs: -20 and -15
  ΔHR: -5 and 0
  ΔLVEDP: -1 and 2 and 0
  Δdp/dt: -100 and 0 and -300
[29]
  ΔBPd: -15 and -10 and -25
  ΔBPs: -25 and -20 and -35
  ΔHR: 0 and -5
  ΔLVEDP: -1 and 0 and -2
  Δdp/dt: -100 and -600
[30]
  ΔBPd: -15 and -10 and -35
  ΔBPs: -30 and -20 and -50
  ΔHR: -5 and -10 and 0
  ΔLVEDP: -1 and -3
  Δdp/dt: -100 and -200 and -900
[31]
  ΔBPd: -10 and -15 and -25
  ΔBPs: -20 and -30 and -35
  ΔHR: 0 and -15 and 5
  ΔLVEDP: -1 and -2 and -3
  Δdp/dt: -100 and -200 and -600
